According to patent publication US20230147835A1, “METHODS OF TREATING SYSTEMIC SCLEROSIS” (Horizon Therapeutics Ireland DAC, priority 2020, published 2023):
Entries after “also recorded” stand apart in the source; their conditions may differ.

Key:
[1] = test system: bleomycin-induced skin fibrosis; experiment: Bleomycin-induced skin fibrosis model, therapeutic protocol; assay type: in vivo, mouse; details: 50 mg/kg/day
Text: (§1) Two models of skin fibrosis were used to evaluate the effect of Compound 1 in comparison with imatinib mesylate, used as a reference.

[2] = test system: presensitized mice treated with ovalbumin; experiment: Broncho-alveolar lavage of presensitized mice treated with ovalbumin; details: mouse, in vivo
models of thrombosis [3] = experiment: Acute models of coagulation and arterial thrombosis (rats); assay type: in vivo; details: two models in rats
Text: (§2) All these pathological events can be observed in SSc patients at different levels and further support the use of Compound 1 in these patients.

tight skin (Tsk-1) mice = experiment: Tight skin (Tsk-1) mice skin fibrosis model; assay type: in vivo, mouse; details: 30 mg/kg/day; reference imatinib
Text: as §1

[4] = test system: hypertension-induced or nephrotoxicity-induced renal failure; experiment: Models of hypertension-induced or nephrotoxicity-induced renal failure; details: in vivo
Text: as §2

[5] = biological target: lysophosphatidic acid receptor 1 (LPAR1) (Homo sapiens, UniProt Q92633); details: cited from earlier work
lysophosphatidic acid receptor 1 (LPAR1), sequence (Q92633 whole entry, species assumed): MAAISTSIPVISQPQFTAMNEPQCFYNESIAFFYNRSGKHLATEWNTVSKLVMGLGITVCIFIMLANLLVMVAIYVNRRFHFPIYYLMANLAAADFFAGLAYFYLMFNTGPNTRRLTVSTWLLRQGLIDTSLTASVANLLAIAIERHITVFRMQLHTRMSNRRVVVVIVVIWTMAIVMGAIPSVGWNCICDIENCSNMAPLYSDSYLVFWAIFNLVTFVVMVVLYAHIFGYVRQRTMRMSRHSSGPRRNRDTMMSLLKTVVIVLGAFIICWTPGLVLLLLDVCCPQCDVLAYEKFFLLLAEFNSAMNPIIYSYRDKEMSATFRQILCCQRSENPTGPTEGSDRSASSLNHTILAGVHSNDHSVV

[6] = test system: patients with early dcSSc; experiment: Phase 2 8-week double-blind placebo-controlled study with 16-week open-label extension; assay type: in vivo, human
Text: The primary end point was safety during the double-blind phase of the trial. Exploratory end points included the identification of an LPA-induced gene signature in patients' skin.
Seventeen of 32 patients were randomly assigned to receive placebo and 15 to receive Compound 1. Thirty patients participated in the open-label extension study. […] At week 8, the reduction in MRSS was numerically greater in the Compound 1 group than in the placebo group (mean±SD change −3.57±4.18 versus −2.76±4.85; treatment effect −1.2 [95% confidence interval −4.37, 2.02]).

Phase 1 studies = assay type: in vivo; details: multiple Phase 1 studies
Text: See, Khanna, et al. (2007) Curr Rheumatol Rep. 9:151-7, which is incorporated herein by reference for all purposes.

[7] = test system: hypertension or diabetes-related cardiac hypertrophy, fibrosis and heart failure; experiment: Models of hypertension or diabetes-related cardiac hypertrophy, fibrosis and heart failure; details: in vivo
Text: as §2

models of thrombosis [8] = experiment: Model of thrombosis (mouse); assay type: in vivo; details: one model in mouse
Text: as §2

[9] = 24-weeks of continuous treatment
[10] = Subjects switched from placebo to Compound 1 (16-week open label extension)
[11] = initial Compound 1 group, treatment up to 24 weeks, versus baseline

COc1ccc(C(=O)NC2(C(=O)O)Cc3ccccc3C2)cc1OCCc1cccc(C)c1 [Compound 1, 2-(4-methoxy-3-(3-methylphenethoxy)benzamido)-2,3-dihydro-1H-indene-2-carboxylic acid]
collagen content in mouse skin ([1]; therapeutic protocol): able to reverse
dermal thickness in mouse skin ([1]; therapeutic protocol): able to reverse
myofibroblast differentiation in mouse skin ([1]; therapeutic protocol): able to reverse
effect on these markers compared with imatinib ([1]; reference imatinib mesylate): comparable with the effects of imatinib
accumulation of leukocytes and total inflammatory cells in broncho-alveolar lavage [2]: significant inhibitory effect
inflammation in a model of lung injury with predominant Th2-type response [2]: reduces inflammation
antithrombotic activity (models of thrombosis [3]): moderate but significant antithrombotic activity; also recorded: demonstrated antithrombotic activity
progression of skin fibrosis (tight skin (Tsk-1) mice): inhibit the progression of skin fibrosis at a similar level than imatinib
kidney fibrosis [4]: inhibits fibrosis
kidney function [4]: improved kidney function
antagonist of lysophosphatidic acid receptor 1 (LPAR1) [5]: potent antagonist
Median Decrease in mRSS [6, 9]: −7.5
Responder Rate [6, 9]: 78.6%
LPA-related genes, biomarker analysis of skin biopsies ([6]; FIG. 1): reductions
Modified Rodnan Skin Score (mRSS) ([6]; Phase 2 double-blind phase and open label extension): improvement
Median Decrease in mRSS [6, 10]: −7.0
Responder Rate [6, 10]: 69.2%
most frequent adverse events ([6]; blinded phase): headache, diarrhea, nausea, and falling
MRSS during the study ([6]; difference was not significant): improved
tolerability in patients with dcSSc ([6]; in vivo): well tolerated
disease biomarker COMP [6, 11]: numerical improvement versus baseline
disease biomarker TSP1 [6, 11]: numerical improvement versus baseline
safety profile ([6]; open-label extension): acceptable
reduction of LPA-related genes in skin samples versus placebo ([6]; week 8): greater reduction
change in MRSS (mean±SD) ([6]; week 8, double-blind phase): −3.57±4.18
treatment effect on MRSS versus placebo ([6]; week 8, 95% confidence interval −4.37, 2.02): −1.2
HAQ-DI ([6]; week 24): clinically significant improvement
safety and tolerability (Phase 1 studies): safe and well tolerated
arterial stiffness [7]: positive effect
blood pressure [7]: mostly unchanged
cardiac function and structure [7]: beneficial effect
cardiac systolic and diastolic function [7]: improves
heart fibrosis [7]: inhibits fibrosis
antithrombotic activity (models of thrombosis [8]): demonstrated antithrombotic activity
